The results in this text go back to PubChem BioAssay AID1259411 (Chemical Carcinogenesis Research Information System (CCRIS), 2018).

Calls of active or inactive are those of the source. How the calls were made is not given here.

For the data set, the system named is rodent carcinogenicity bioassays, tumor incidence. Put plainly: CCRIS carcinogenicity studies. Put shortly:
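Archive of carcinogenicity, mutagenicity, tumor promotion and tumor inhibition results drawn from journals, NCI reports and other sources, expert-reviewed; covers 1985-2011 and is no longer updated.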

Turning to `C=O`, the carcinogen call was “inactive; negative” (Species: Hamster, Strain/Sex: Syrian golden/Male (132/Control group; 88/Experimental group), Route: Inhalation, Dose: 10 ppm 5 hr/day, 5 d/wk for life, study duration was lifetime of the animal); “inactive; negative. dose-related non-neoplastic nasal lesions were observed” (Species: Mouse, Strain/Sex: B6C3F1/Female (120/Group with sacrifices at 6, 12 and 24 mo), Route: Inhalation, Dose: 0, 2, 6, 15 ppm 6 hr/d, 5 d/wk for 24 mo, study duration 24 mo, Dose: 0, 2, 6, 15 ppm 6 hr/d, 5 d/wk for 24 mo, study duration 24 mo); “active; positive. dose-related non-neoplastic nasal lesions also observed” (Species: Mouse, Strain/Sex: B6C3F1/Male (120/Group with sacrifices at 6, 12 and 24 mo), Route: Inhalation, Dose: 0, 2, 6, 15 ppm 6 hr/d, 5 d/wk for 24 mo, study duration 24 mo, Dose: 0, 2, 6, 15 ppm 6 hr/d, 5 d/wk for 24 mo, study duration 24 mo, Tumor Site: Type of Lesion: Nasal passages); “active; positive” (Species: RAT, Strain/Sex: F344/FEMALE, Route: INHALATION, Dose: 0, 2, 6, 15 PPM, Dose: 0, 2, 6, 15 PPM, Tumor Site: Type of Lesion: NASAL TURBINATES: SQUAMOUS CELL CARCINOMA); “active; positive” (Species: RAT, Strain/Sex: F344/MALE, Route: INHALATION, Dose: 0, 0.3, 2, 15 PPM 6 HR/D 5 D/WK FOR 28 MO (STUDY DURATION: 28 MO), Dose: 0, 0.3, 2, 15 PPM 6 HR/D 5 D/WK FOR 28 MO (STUDY DURATION: 28 MO), Tumor Site: Type of Lesion: NASAL CAVITY: SQUAMOUS CELL CARCINOMA, SQUAMOUS CELL PAPILLOMA); “active; positive” (Species: RAT, Strain/Sex: F344/MALE, Route: INHALATION, Dose: 0, 2, 6, 15 PPM, Dose: 0, 2, 6, 15 PPM, Tumor Site: Type of Lesion: NASAL TURBINATES: SQUAMOUS CELL CARCINOMA). Also, the carcinogen call by setting is: (Species: RAT, Strain/Sex: SPRAGUE-DAWLEY/FEMALE, Route: ORAL, Dose: 0, 10, 50, 100, 500, 1000, 1500 PPM IN DRINKING WATER FOR 104 WK (STUDY DURATION: LIFETIME), Dose: 0, 10, 50, 100, 500, 1000, 1500 PPM IN DRINKING WATER FOR 104 WK (STUDY DURATION: LIFETIME), Tumor Site: Type of Lesion: LYMPHATIC SYSTEM: LEUKEMIA, GASTROINTESTINAL SYSTEM: TUMOR) “active; positive”; (Species: RAT, Strain/Sex: SPRAGUE-DAWLEY/MALE, Route: INHALATION, Dose: 14.2 PPM 6 HR/DAY, 5 DAY/WK, Tumor Site: Type of Lesion: NASAL CAVITY: SQUAMOUS CELL CARCINOMA) “active; positive”; (Species: RAT, Strain/Sex: SPRAGUE-DAWLEY/MALE, Route: ORAL, Dose: 0, 10, 50, 100, 500, 1000, 1500 PPM IN DRINKING WATER FOR 104 WK (STUDY DURATION: LIFETIME), Dose: 0, 10, 50, 100, 500, 1000, 1500 PPM IN DRINKING WATER FOR 104 WK (STUDY DURATION: LIFETIME), Tumor Site: Type of Lesion: LYMPHATIC SYSTEM: LEUKEMIA, GASTROINTESTINAL SYSTEM: TUMOR) “active; positive”; (Species: RAT, Strain/Sex: WISTAR/FEMALE, Route: ORAL, Dose: 0, 1.8, 21 MG/KG IN DRINKING WATER FOR UP TO 24 MO (STUDY DURATION: 105 WK), Dose: 0, 1.8, 21 MG/KG IN DRINKING WATER FOR UP TO 24 MO (STUDY DURATION: 105 WK)) “inactive; negative”; (Species: RAT, Strain/Sex: WISTAR/MALE, Route: INHALATION, Dose: 0, 0.1, 1.0, 10 PPM 6HR/D, 5D/WK FOR 3 MO (STUDY DURATION: 29 MO), Dose: 0, 0.1, 1.0, 10 PPM 6HR/D, 5D/WK FOR 3 MO (STUDY DURATION: 29 MO)) “inactive; negative”; (Species: RAT, Strain/Sex: WISTAR/MALE, Route: INHALATION, Dose: 0, 0.1, 1.0, 10 PPM 6HR/D, 5D/WK FOR 28 MO (STUDY DURATION: 29 MO), Dose: 0, 0.1, 1.0, 10 PPM 6HR/D, 5D/WK FOR 28 MO (STUDY DURATION: 29 MO)) “inactive; negative”. Further, for the setting “Species: RAT, Strain/Sex: WISTAR/MALE, Route: ORAL, Dose: 0, 1.2, 15 MG/KG IN DRINKING WATER FOR UP TO 24 MO (STUDY DURATION: 105 WK), Dose: 0, 1.2, 15 MG/KG IN DRINKING WATER FOR UP TO 24 MO (STUDY DURATION: 105 WK)”, the carcinogen call was “inactive; negative”.
In the case of `COc1ccc(N)c(C)c1`, the carcinogen call is “inactive; negative” (Species: MOUSE, Strain/Sex: B6C3F1/FEMALE, Route: GAVAGE, Dose: 0, 0.06, 0.11 G/KG (FOR 53 WK), Dose: 0, 0.06, 0.11 G/KG (FOR 53 WK)); “active; positive” (Species: RAT, Strain/Sex: F344/FEMALE, Route: GAVAGE, Dose: 0, 0.08, 0.16 G/KG, Dose: 0, 0.08, 0.16 G/KG, Tumor Site: Type of Lesion: URINARY BLADDER: TRANSITIONAL CELL CARCINOMA); “active; positive” (Species: RAT, Strain/Sex: F344/MALE, Route: GAVAGE, Dose: 0, 0.08, 0.16 G/KG, Dose: 0, 0.08, 0.16 G/KG, Tumor Site: Type of Lesion: URINARY BLADDER: TRANSITIONAL CELL CARCINOMA).
`CCCC(CCC)C(=O)O`: the carcinogen call was “active; positive” (Species: RAT, Strain/Sex: WISTAR/FEMALE, Route: ORAL, Dose: 0, 125, 250, 500 MG/KG BW IN DIET FOR 104 WK (STUDY DURATION: 104 WK), Dose: 0, 125, 250, 500 MG/KG BW IN DIET FOR 104 WK (STUDY DURATION: 104 WK), Tumor Site: Type of Lesion: UTERUS: ADENOCARCINOMA) and “inactive; negative” (Species: RAT, Strain/Sex: WISTAR/MALE, Route: ORAL, Dose: 0, 125, 250, 500 MG/KG BW IN DIET FOR 104 WK (STUDY DURATION: 104 WK), Dose: 0, 125, 250, 500 MG/KG BW IN DIET FOR 104 WK (STUDY DURATION: 104 WK)).
As to `Cc1c2ccccc2c(C=O)c2ccc3ccccc3c12`, the carcinogen call runs as follows: (Species: RAT, Strain/Sex: SPRAGUE-DAWLEY/FEMALE (13/GROUP), Route: SUBCUTANEOUS, Dose: 0.2 UMOL 3X A WK FOR 20 DOSES (STUDY DURATION: 52 WK), Tumor Site: Type of Lesion: MAMMARY: ADENOCARCINOMA) “active; positive (15%)”; (Species: RAT, Strain/Sex: SPRAGUE-DAWLEY/FEMALE (13/GROUP), Route: SUBCUTANEOUS, Dose: 0.2 UMOL 3X A WK FOR 20 DOSES (STUDY DURATION: 52 WK), Tumor Site: Type of Lesion: SUBCUTANEOUS, SARCOMA) “active; positive (85%)”.
`CC(=NC#N)N(C)Cc1ccc(Cl)nc1`: the carcinogen call was “inactive; negative” (Species: Mouse, Strain/Sex: Crl:CD-1 (ICR)BR/Female, Route: Oral, Dose: 0, 130, 400, 1200 ppm (0; 25; 76; 215 mg/kg/day) in feed for 18 mo, Dose: 0, 130, 400, 1200 ppm (0; 25; 76; 215 mg/kg/day) in feed for 18 mo); “inactive; negative” (Species: Mouse, Strain/Sex: Crl:CD-1 (ICR)BR/Male, Route: Oral, Dose: 0, 130, 400, 1200 ppm (0; 20; 66; 186 mg/kg/day) in feed for 18 mo, Dose: 0, 130, 400, 1200 ppm (0; 20; 66; 186 mg/kg/day) in feed for 18 mo); “inactive; negative” (Species: Rat, Strain/Sex: Crl:CD BR/Female, Route: Oral, Dose: 0, 160, 400, 1000 ppm (0; 8.8; 22.6; 60.0 mg/kg/day) in feed for 2 yr, Dose: 0, 160, 400, 1000 ppm (0; 8.8; 22.6; 60.0 mg/kg/day) in feed for 2 yr); “inactive; negative” (Species: Rat, Strain/Sex: Crl:CD BR/Male, Route: Oral, Dose: 0, 160, 400, 1000 ppm (0; 7.1; 17.5; 46.4 mg/kg/day) in feed for 2 yr, Dose: 0, 160, 400, 1000 ppm (0; 7.1; 17.5; 46.4 mg/kg/day) in feed for 2 yr).
Turning to `N#[N+]c1ccc(O)cc1`, the carcinogen call (Species: MOUSE, Strain/Sex: SWISS/FEMALE, Route: SUBCUTANEOUS, Dose: 0, 2 UG 1/WK FOR 36 WK (STUDY DURATION: 120 WK), Tumor Site: Type of Lesion: SUBCUTANEOUS TISSUE: TUMOR) was “active; positive”; the carcinogen call (Species: MOUSE, Strain/Sex: SWISS/FEMALE, Route: SUBCUTANEOUS, Dose: 0, 10 UG 1/WK FOR 2 WK (STUDY DURATION: 130 WK)) was “inactive; negative”; the carcinogen call (Species: MOUSE, Strain/Sex: SWISS/MALE, Route: SUBCUTANEOUS, Dose: 0, 2 UG 1/WK FOR 36 WK (STUDY DURATION: 110 WK), Tumor Site: Type of Lesion: SUBCUTANEOUS TISSUE: TUMOR) was “active; positive”; the carcinogen call (Species: MOUSE, Strain/Sex: SWISS/MALE, Route: SUBCUTANEOUS, Dose: 0, 10 UG 1/WK FOR 2 WK (STUDY DURATION: 130 WK)) is “inactive; negative”.
